# From US9994617B2, “Modulation of structured polypeptide specificity” (BICYCLE THERAPEUTICS LIMITED, priority 2011, dated 2018)
# Numbered stars: 1 amine (or outer) side, 2 acyl side, 3 side chain; on linkers, the order of the positions; unused ones are H or OH. Bridge positions count the residues as written; N and C are the ends. Square brackets hold non-standard residues; d marks the D form. Peptide text beside a SMILES is read from it. Arg(Me2a) = CN(C)C(=N)NCCC[C@H](N)C(=O)O; Arg(Me2s) = CN=C(NC)NCCC[C@H](N)C(=O)O; TBMB = c1c(C[*:1])cc(C[*:3])cc1C[*:2]
# B1: Ac-(06-34-18) D-Trp2 (peptide)
# peptide: Ac-CS[dW]PARCLHQDLC-NH2
# modifications: linker 1-7-13 via TBMB
# SMILES: CC(=O)N[C@H]1CSCc2cc3cc(c2)CSC[C@H](NC(=O)[C@H](CCCNC(=N)N)NC(=O)[C@H](C)NC(=O)[C@@H]2CCCN2C(=O)[C@@H](Cc2c[nH]c4ccccc24)NC(=O)[C@H](CO)NC1=O)C(=O)N[C@@H](CC(C)C)C(=O)N[C@@H](Cc1c[nH]cn1)C(=O)N[C@@H](CCC(N)=O)C(=O)N[C@@H](CC(=O)O)C(=O)N[C@@H](CC(C)C)C(=O)N[C@H](C(N)=O)CSC3
# B2: Ac-(06-34-18) NDMA5 (peptide)
# peptide: Ac-CSWPA[Arg(Me2a)]CLHQDLC-NH2
# modifications: linker 1-7-13 via TBMB
# SMILES: CC(=O)N[C@H]1CSCc2cc3cc(c2)CSC[C@H](NC(=O)[C@H](CCCNC(=N)N(C)C)NC(=O)[C@H](C)NC(=O)[C@@H]2CCCN2C(=O)[C@H](Cc2c[nH]c4ccccc24)NC(=O)[C@H](CO)NC1=O)C(=O)N[C@@H](CC(C)C)C(=O)N[C@@H](Cc1c[nH]cn1)C(=O)N[C@@H](CCC(N)=O)C(=O)N[C@@H](CC(=O)O)C(=O)N[C@@H](CC(C)C)C(=O)N[C@H](C(N)=O)CSC3
# B3: Ac-(06-34-18) SDMA5 (peptide)
# peptide: Ac-CSWPA[Arg(Me2s)]CLHQDLC-NH2
# modifications: linker 1-7-13 via TBMB
# SMILES: CN=C(NC)NCCC[C@@H]1NC(=O)[C@H](C)NC(=O)[C@@H]2CCCN2C(=O)[C@H](Cc2c[nH]c3ccccc23)NC(=O)[C@H](CO)NC(=O)[C@@H](NC(C)=O)CSCc2cc3cc(c2)CSC[C@H](NC1=O)C(=O)N[C@@H](CC(C)C)C(=O)N[C@@H](Cc1c[nH]cn1)C(=O)N[C@@H](CCC(N)=O)C(=O)N[C@@H](CC(=O)O)C(=O)N[C@@H](CC(C)C)C(=O)N[C@H](C(N)=O)CSC3
# B4: Ac-(06-34-18) D-Ala4 (peptide)
# peptide: Ac-CSWP[dA]RCLHQDLC-NH2
# modifications: linker 1-7-13 via TBMB
# SMILES: CC(=O)N[C@H]1CSCc2cc3cc(c2)CSC[C@H](NC(=O)[C@H](CCCNC(=N)N)NC(=O)[C@@H](C)NC(=O)[C@@H]2CCCN2C(=O)[C@H](Cc2c[nH]c4ccccc24)NC(=O)[C@H](CO)NC1=O)C(=O)N[C@@H](CC(C)C)C(=O)N[C@@H](Cc1c[nH]cn1)C(=O)N[C@@H](CCC(N)=O)C(=O)N[C@@H](CC(=O)O)C(=O)N[C@@H](CC(C)C)C(=O)N[C@H](C(N)=O)CSC3
# Legend:
# Human thrombin = Human thrombin (Homo sapiens, UniProt P00734); assay: Inhibition of paralogous protease thrombin; assay type: biochemical; conditions: for inhibition of thrombin: highest concentration tested (100 μM)
# Method: (§1) The target specificity of the isolated bicyclic peptide inhibitors was assessed by determining the inhibition of trypsin-like human serine proteases of the class S1A which comprises 79 members (Yousef, et al, Biochem Biophys Res Commun 2003, 305 (1), 28-36). The panel of proteases included hfXIa which shares the highest sequence identity with hPK (69%) as well as the structurally less related but vital human serine proteases thrombin (36%), plasmin (34% sequence identity with hPK) and factor XIIa (35%).
# [1] = target: T1, Human factor XIIa (hfXIIa) (Homo sapiens, UniProt P00748); assay: Inhibition of paralogous protease factor XIIa; assay type: biochemical; conditions: for inhibition of factor XIIa: highest concentration tested (100 μM)
# T1 sequence (P00748 373-615 limits assumed): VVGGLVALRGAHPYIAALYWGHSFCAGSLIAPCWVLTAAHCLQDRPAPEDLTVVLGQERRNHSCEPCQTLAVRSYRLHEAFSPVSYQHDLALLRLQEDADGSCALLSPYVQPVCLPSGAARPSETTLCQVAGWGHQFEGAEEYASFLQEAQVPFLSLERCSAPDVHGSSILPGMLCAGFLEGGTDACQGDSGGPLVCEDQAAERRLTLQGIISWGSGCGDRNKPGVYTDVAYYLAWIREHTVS
# Method: as §1
# [2] = target: human plasma kallikrein (hPK) (Homo sapiens, UniProt P03952); assay: Enzyme inhibition assay, human plasma kallikrein
# Sequence of human plasma kallikrein (hPK) (P03952 20-638): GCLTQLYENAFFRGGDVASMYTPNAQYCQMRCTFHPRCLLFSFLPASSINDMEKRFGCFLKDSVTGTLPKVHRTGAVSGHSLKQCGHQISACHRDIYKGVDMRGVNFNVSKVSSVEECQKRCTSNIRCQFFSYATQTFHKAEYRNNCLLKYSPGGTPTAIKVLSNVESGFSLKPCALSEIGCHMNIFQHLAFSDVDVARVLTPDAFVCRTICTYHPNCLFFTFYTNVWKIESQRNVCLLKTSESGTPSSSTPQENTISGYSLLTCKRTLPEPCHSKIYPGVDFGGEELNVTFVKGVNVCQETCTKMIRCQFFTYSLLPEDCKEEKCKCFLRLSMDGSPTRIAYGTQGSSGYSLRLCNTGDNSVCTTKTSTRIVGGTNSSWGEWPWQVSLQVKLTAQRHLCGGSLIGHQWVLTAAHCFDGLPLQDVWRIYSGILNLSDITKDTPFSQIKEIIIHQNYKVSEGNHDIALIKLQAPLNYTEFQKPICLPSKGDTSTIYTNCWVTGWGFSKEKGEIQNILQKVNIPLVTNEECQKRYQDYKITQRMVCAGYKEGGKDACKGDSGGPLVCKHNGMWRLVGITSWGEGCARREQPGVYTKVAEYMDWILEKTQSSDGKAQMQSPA
# Human factor XIa (hfXIa) = Human factor XIa (hfXIa) (Homo sapiens, UniProt P03951); assay: Inhibition of paralogous protease factor XIa; assay type: biochemical; conditions: highest concentration tested (100 μM)
# Sequence of Human factor XIa (hfXIa) (P03951 388-625 limits assumed): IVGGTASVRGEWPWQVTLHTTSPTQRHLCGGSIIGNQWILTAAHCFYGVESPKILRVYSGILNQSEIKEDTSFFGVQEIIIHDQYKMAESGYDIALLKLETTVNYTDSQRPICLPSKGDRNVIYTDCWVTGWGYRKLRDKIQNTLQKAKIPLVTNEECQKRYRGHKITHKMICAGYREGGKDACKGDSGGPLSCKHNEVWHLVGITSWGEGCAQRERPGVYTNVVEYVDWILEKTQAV
# Sequence of Human factor XIa (hfXIa) (P03951 19-387 partner limits assumed): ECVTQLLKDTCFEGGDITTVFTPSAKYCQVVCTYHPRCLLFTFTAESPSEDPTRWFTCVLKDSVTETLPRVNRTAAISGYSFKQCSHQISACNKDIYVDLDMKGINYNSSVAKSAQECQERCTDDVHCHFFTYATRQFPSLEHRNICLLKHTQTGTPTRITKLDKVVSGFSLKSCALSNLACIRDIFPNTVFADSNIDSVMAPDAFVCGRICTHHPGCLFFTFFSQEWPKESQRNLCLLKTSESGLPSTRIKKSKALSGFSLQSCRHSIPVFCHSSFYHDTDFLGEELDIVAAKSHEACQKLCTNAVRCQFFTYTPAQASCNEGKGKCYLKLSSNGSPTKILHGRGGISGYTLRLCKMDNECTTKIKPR
# Method: as §1
# Human plasmin = Human plasmin (Homo sapiens, UniProt P00747); assay: Inhibition of paralogous protease plasmin; assay type: biochemical; conditions: highest concentration tested (100 μM)
# Sequence of Human plasmin (P00747 581-810 limits assumed): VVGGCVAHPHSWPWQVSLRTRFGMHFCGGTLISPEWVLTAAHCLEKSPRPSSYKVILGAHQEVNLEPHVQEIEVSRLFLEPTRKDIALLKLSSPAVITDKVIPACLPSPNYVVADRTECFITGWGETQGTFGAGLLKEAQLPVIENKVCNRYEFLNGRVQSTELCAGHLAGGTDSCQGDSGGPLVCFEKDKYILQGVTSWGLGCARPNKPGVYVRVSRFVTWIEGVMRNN
# Sequence of Human plasmin (P00747 97-580 partner limits assumed): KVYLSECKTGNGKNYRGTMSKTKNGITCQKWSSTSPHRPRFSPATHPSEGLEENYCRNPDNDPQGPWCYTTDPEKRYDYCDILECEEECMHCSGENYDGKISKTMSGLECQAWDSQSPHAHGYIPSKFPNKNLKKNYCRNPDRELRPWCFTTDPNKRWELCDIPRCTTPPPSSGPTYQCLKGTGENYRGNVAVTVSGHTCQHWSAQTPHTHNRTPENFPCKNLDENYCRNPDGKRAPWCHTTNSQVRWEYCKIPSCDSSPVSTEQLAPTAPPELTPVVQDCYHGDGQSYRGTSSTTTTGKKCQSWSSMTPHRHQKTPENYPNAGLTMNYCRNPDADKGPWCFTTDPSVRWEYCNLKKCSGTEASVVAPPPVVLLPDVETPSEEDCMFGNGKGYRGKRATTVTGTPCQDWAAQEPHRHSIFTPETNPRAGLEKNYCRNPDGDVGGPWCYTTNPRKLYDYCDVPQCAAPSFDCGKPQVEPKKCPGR
# Method: as §1
# [3] = target: rat plasma kallikrein (rPK) (Rattus norvegicus, UniProt P14272); assay: Enzyme inhibition assay, rat plasma kallikrein
# Sequence of rat plasma kallikrein (rPK) (P14272 391-638 limits assumed): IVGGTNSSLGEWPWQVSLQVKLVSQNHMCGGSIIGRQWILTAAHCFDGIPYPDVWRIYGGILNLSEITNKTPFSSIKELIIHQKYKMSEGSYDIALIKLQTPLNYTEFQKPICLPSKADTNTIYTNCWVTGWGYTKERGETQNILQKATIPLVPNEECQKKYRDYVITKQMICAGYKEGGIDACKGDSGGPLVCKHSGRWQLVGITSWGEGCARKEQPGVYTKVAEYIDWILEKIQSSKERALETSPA
# [4] = target: T2, Human plasma kallikrein (hPK) (human, UniProt P03952 20-638, limits assumed); assay: enzyme inhibition assay (fluorogenic substrate)
# T2 construct: also called human PK; human kallikrein
# T2 sequence (P03952 20-638 limits assumed): as the sequence (P03952 20-638) above
# [5] = target: T2, Human plasma kallikrein (hPK); assay: enzyme inhibition assay (fluorogenic substrate); remark: listed apart in the source
Molecule,IC50 (Human thrombin),IC50 [1],Ki [2],also measured
CC(C)C[C@@H]1NC(=O)[C@@H]2CSCc3cc(cc(c3)CSC[C@@H](C(=O)N[C@@H](C)C(N)=O)NC(=O)[C@H](Cc3ccc(O)cc3)NC(=O)[C@H](CC(=O)O)NC(=O)[C@H](CCC(N)=O)NC(=O)[C@H](Cc3c[nH]cn3)NC1=O)CSC[C@H](NC(=O)[C@H](C)N)C(=O)N[C@@H](CO)C(=O)N[C@@H](Cc1c[nH]c3ccccc13)C(=O)N1CCC[C@H]1C(=O)N[C@@H](Cc1ccc(O)cc1)C(=O)N[C@@H](CCCNC(=N)N)C(=O)N2 [Peptide 06-61] (H-ACSWPYRCLHQDYCA-NH2; linker 2-8-14 via TBMB),> 10000 nM,> 10000 nM,5.8 nM,–
C[C@H](N)C(=O)N[C@H]1CSCc2cc3cc(c2)CSC[C@H](NC(=O)[C@H](CCCNC(=N)N)NC(=O)[C@H](C)NC(=O)[C@@H]2CCCN2C(=O)[C@H](Cc2c[nH]c4ccccc24)NC(=O)[C@H](CCCNC(=N)N)NC1=O)C(=O)N[C@@H]([C@@H](C)O)C(=O)N[C@@H](Cc1c[nH]cn1)C(=O)N[C@@H](CCC(N)=O)C(=O)N[C@@H](CC(N)=O)C(=O)N[C@@H](Cc1ccc(O)cc1)C(=O)N[C@H](C(=O)N[C@@H](C)C(N)=O)CSC3 [Peptide 06-54] (H-ACRWPARCTHQNYCA-NH2; linker 2-8-14 via TBMB),> 10000 nM,> 10000 nM,0.49 nM,inhibition of hfXIa (Human factor XIa (hfXIa)): did not inhibit; inhibition of thrombin (Human thrombin): did not inhibit; inhibition of plasmin (Human plasmin): did not inhibit; inhibition of factor XIIa [1]: did not inhibit; Ki [3]: 7 nM
CSCC[C@@H]1NC(=O)[C@H](CCC(=O)O)NC(=O)[C@H](CCC(N)=O)NC(=O)[C@H](Cc2c[nH]cn2)NC(=O)[C@H]([C@@H](C)O)NC(=O)[C@@H]2CSCc3cc(cc(c3)CSC[C@@H](C(=O)N[C@@H](C)C(N)=O)NC1=O)CSC[C@H](NC(=O)[C@H](C)N)C(=O)NCC(=O)N[C@@H](C(C)C)C(=O)N1CCC[C@H]1C(=O)N[C@@H](Cc1ccc(O)cc1)C(=O)N[C@@H](CCCNC(=N)N)C(=O)N2 [06-64 T] (H-ACGVPYRCTHQEMCA-NH2; linker 2-8-14 via TBMB),> 10000 nM,> 10000 nM,6.9 nM,–
C[C@H](N)C(=O)N[C@H]1CSCc2cc3cc(c2)CSC[C@H](NC(=O)[C@H](CCCNC(=N)N)NC(=O)[C@H](C)NC(=O)[C@@H]2CCCN2C(=O)[C@H](Cc2c[nH]c4ccccc24)NC(=O)[C@H]([C@@H](C)O)NC1=O)C(=O)N[C@@H]([C@@H](C)O)C(=O)N[C@@H](Cc1c[nH]cn1)C(=O)N[C@@H](CCC(N)=O)C(=O)N[C@@H](CC(N)=O)C(=O)N[C@@H](Cc1c[nH]c2ccccc12)C(=O)N[C@H](C(=O)N[C@@H](C)C(N)=O)CSC3 [Peptide 06-09] (H-ACTWPARCTHQNWCA-NH2; linker 2-8-14 via TBMB),> 10000 nM,> 10000 nM,1.2 nM,–
CC(C)C[C@@H]1NC(=O)[C@H](CC(N)=O)NC(=O)[C@H](CCC(N)=O)NC(=O)[C@H](Cc2c[nH]cn2)NC(=O)[C@H](CC(C)C)NC(=O)[C@@H]2CSCc3cc(cc(c3)CSC[C@@H](C(=O)N[C@@H](C)C(N)=O)NC1=O)CSC[C@H](NC(=O)[C@H](C)N)C(=O)N[C@@H]([C@@H](C)O)C(=O)N[C@@H](Cc1ccc(O)cc1)C(=O)N1CCC[C@H]1C(=O)N[C@@H](Cc1ccc(O)cc1)C(=O)N[C@@H](CCCCN)C(=O)N2 [Peptide 2A10] (H-ACTYPYKCLHQNLCA-NH2; linker 2-8-14 via TBMB),–,–,4.98 nM,inhibition of hfXIa (Human factor XIa (hfXIa)): did not inhibit; inhibition of thrombin (Human thrombin): did not inhibit; inhibition of factor XIIa [1]: did not inhibit
CC(C)C[C@@H]1NC(=O)[C@@H]2CSCc3cc(cc(c3)CSC[C@@H](C(=O)N[C@@H](C)C(N)=O)NC(=O)[C@@H]3CCCN3C(=O)[C@H](CCCNC(=N)N)NC(=O)[C@H](CCCNC(=N)N)NC(=O)[C@H](Cc3ccccc3)NC1=O)CSC[C@H](NC(=O)[C@H](C)N)C(=O)N[C@@H](C)C(=O)N[C@@H](CC(=O)O)C(=O)N1CCC[C@H]1C(=O)N[C@@H](Cc1c[nH]c3ccccc13)C(=O)N[C@@H](C)C(=O)N2 [06-63 T] (H-ACADPWACLFRRPCA-NH2; linker 2-8-14 via TBMB),> 10000 nM,> 10000 nM,1280 nM,–
CC(C)C[C@@H]1NC(=O)[C@@H]2CSCc3cc(cc(c3)CSC[C@@H](C(=O)N[C@@H](C)C(N)=O)NC(=O)[C@H](CC(C)C)NC(=O)[C@H](CC(=O)O)NC(=O)[C@H]([C@@H](C)O)NC(=O)[C@H](Cc3c[nH]cn3)NC1=O)CSC[C@H](NC(=O)[C@H](C)N)C(=O)N[C@@H](CC(N)=O)C(=O)N[C@@H](Cc1c[nH]c3ccccc13)C(=O)N1CCC[C@H]1C(=O)N[C@@H](Cc1ccc(O)cc1)C(=O)N[C@@H](CCCNC(=N)N)C(=O)N2 [Peptide 06-157] (H-ACNWPYRCLHTDLCA-NH2; linker 2-8-14 via TBMB),> 10000 nM,> 10000 nM,3.3 nM,–
CC(C)C[C@@H]1NC(=O)[C@H](CO)NC(=O)[C@H]([C@@H](C)O)NC(=O)[C@H]([C@@H](C)O)NC(=O)[C@H](CC(C)C)NC(=O)[C@@H]2CSCc3cc(cc(c3)CSC[C@@H](C(=O)N[C@@H](C)C(N)=O)NC1=O)CSC[C@H](NC(=O)[C@H](C)N)C(=O)N[C@@H](CCCNC(=N)N)C(=O)N[C@@H](Cc1c[nH]c3ccccc13)C(=O)N1CCC[C@H]1C(=O)N[C@@H](C)C(=O)N[C@@H](CCCNC(=N)N)C(=O)N2 [Peptide 06-59] (H-ACRWPARCLTTSLCA-NH2; linker 2-8-14 via TBMB),> 10000 nM,> 10000 nM,0.5 nM,–
CC(C)C[C@@H]1NC(=O)[C@H](CC(=O)O)NC(=O)[C@H](CCC(N)=O)NC(=O)[C@H](Cc2c[nH]cn2)NC(=O)[C@H](CC(N)=O)NC(=O)[C@@H]2CSCc3cc(cc(c3)CSC[C@@H](C(=O)N[C@@H](C)C(N)=O)NC1=O)CSC[C@H](NC(=O)[C@H](C)N)C(=O)N[C@@H](CO)C(=O)N[C@@H](Cc1c[nH]c3ccccc13)C(=O)N1CCC[C@H]1C(=O)N[C@@H](C)C(=O)N[C@@H](CCCNC(=N)N)C(=O)N2 [Peptide 06-57] (H-ACSWPARCNHQDLCA-NH2; linker 2-8-14 via TBMB),> 10000 nM,> 10000 nM,0.4 nM,–
B1,–,–,–,fold loss in potency against Ac-06-34-18 wildtype [4]: 45000 fold
B2,–,–,–,Ki [5]: 510 nM
B3,–,–,–,Ki [5]: 1420 nM
B4,–,–,–,fold reduction of affinity against Ac-06-34-18 wildtype [4]: 7000 fold
